# Source: US7592373B2 (Boehringer Ingelheim International GmbH, priority 2003, dated 2009)
# Where a name gives a salt, the structure may show the parent alone.
row,Compound,melting point [°C]
1,"O=C(/C=C/c1ccc(CNCC2CCCCC2)cc1)Nc1ccc(-c2ccc(Cl)cc2)cc1 [Example 5.21, (E)-N-(4′-chlorobiphenyl-4-yl)-3-{4-[(cyclohexylmethylamino)methyl]phenyl}acrylamide]",262 to 263
2,"O=C(C#Cc1ccc(CN2CCC[C@@H]2CO)cc1)Nc1ccc(-c2ccc(Cl)cc2)cc1F [Example 1.20, 3-[4-((R)-2-hydroxymethylpyrrolidin-1-ylmethyl)phenyl]propynoic acid-(4′-chloro-3-fluorobiphenyl-4-yl)amide]",146 to 148
3,"CC1CCN(Cc2ccc(/C=C/C(=O)Nc3ccc(-c4ccc(Cl)cc4)cc3)cc2)CC1 [Example 5.2, (E)-N-(4′-chlorobiphenyl-4-yl)-3-[4-(4-methylpiperidin-1-ylmethyl)phenyl]acrylamide]",207 to 208
4,"CC1CN(Cc2ccc(/C=C/C(=O)Nc3ccc(-c4ccc(Cl)cc4)cc3)cc2)CC(C)O1 (stereo not drawn) [Example 5.23, (E)-N-(4′-chlorobiphenyl-4-yl)-3-[4-(2,6-dimethylmorpholin-4-ylmethyl)phenyl]acrylamide]",212 to 213
5,"CCCN(CCOc1ccc(NC(=O)C#Cc2ccc(C(F)(F)F)cc2Cl)cc1OC)CC1CC1 (as salt: hydrochloride) [Example 4.279, 3-(2-chloro-4-trifluoromethylphenyl)propynoic acid-{4-[2-(cyclopropylmethylpropylamino)ethoxy]-3-methoxyphenyl}amide hydrochloride]",185 to 188
6,"O=C(C#Cc1ccc(-c2ccc(Cl)cc2)cc1)Nc1ccc(CN2CCC(O)(C(F)(F)F)CC2)cc1 [Example 3.17, 3-(4′-chlorobiphenyl-4-yl)propynoic acid-[4-(4-hydroxy-4-trifluoromethylpiperidin-1-ylmethyl)phenyl]amide]",194 to 200
7,"CC1CC(C)CN(Cc2ccc(NC(=O)C#Cc3ccc(-c4ccc(Cl)cc4)cc3)cc2)C1 (stereo not drawn) [Example 3.12, 3-(4′-chlorobiphenyl-4-yl)propynoic acid-[4-(3,5-dimethylpiperidin-1-ylmethyl)phenyl]amide]",209 to 214
8,"CC1CN(Cc2ccc(CCC(=O)Nc3ccc(-c4ccc(Cl)cc4)cc3)cc2)CC(C)O1 (stereo not drawn) [Example 6.21, N-(4′-chlorobiphenyl-4-yl)-3-[4-(2,6-dimethylmorpholin4-ylmethyl)phenyl]propionamide]",158.5 to 160.5
9,"COc1ccc(-c2ccc(NC(=O)CCc3ccc(CN4CCCC4)cc3)cc2)cc1 [Example 6.1, N-(4′-methoxybiphenyl-4-yl)-3-(4-pyrrolidin-1-ylmethylphenyl)propionamide]",185 to 188
10,"CN(Cc1ccncc1)Cc1ccc(CCC(=O)Nc2ccc(-c3ccc(Cl)cc3)cc2)cc1 [Example 6.32, N-(4′-chlorobiphenyl-4-yl)-3-{4-[(methylpyridin-4-ylmethylamino)methyl]phenyl}propionamide]",102
11,"O=C(CCc1ccc(CN2CC[C@H](O)C2)cc1)Nc1ccc(-c2ccc(Cl)cc2)cc1 [Example 6.7, N-(4′-chlorobiphenyl-4-yl)-3-[4-((S)-3-hydroxypyrrolidin-1-ylmethyl)phenyl]propionamide]",171 to 172
12,"CCN(CC)CCc1ccc(NC(=O)C#Cc2ccc(Cl)cc2Cl)cc1 (as salt: hydrochloride) [Example 3.34, 3-(2,4-dichlorophenyl)propynoic acid-[4-(2-diethylaminoethyl)phenyl]amide hydrochloride]",204 to 208
13,O=C(C#Cc1ccc(CN2CCC(N3CCCC3)CC2)cc1)Nc1ccc(-c2ccc(Cl)cc2)cc1 [Example 1.38],191 to 192
14,"O=C(/C=C/c1ccc(CNC2CCCCC2)cc1)Nc1ccc(-c2ccc(Cl)cc2)cc1 [Example 5.33, (E)-N-(4′-chlorobiphenyl-4-yl)-3-(4-cyclohexylaminomethylphenyl)acrylamide]",247 to 248
15,"CC#Cc1ccc(NC(=O)C#Cc2ccc(CN3CCCCC3)cc2)cc1 [Example 1.2, 3-(4-piperidin-1-ylemthylphenyl)propynoic acid-(4-prop-1-ynylphenyl)amide]",180 to 181
16,"O=C(C#Cc1ccc(-c2ccc(Cl)cc2)cn1)Nc1ccc(CN2CCC(O)CC2)cc1 [Example 3.168, 3-[5-(4-chlorophenyl)pyridin-2-yl]propynoic acid-[4-(4-hydroxypiperidin-1-ylmethyl)phenyl]amide]",186 to 190
17,"COc1cc(NC(=O)C#Cc2ccc(C(F)(F)F)cc2Cl)ccc1OCCN1CCC(C)CC1 [Example 4.270, 3-(2-chloro-4-trifluoromethylphenyl)propynoic acid-{3-methoxy-4-[2-(4-methylpiperidin-1-yl)ethoxy]phenyl}amide]",207 to 209
18,CN(Cc1ccc(C#CC(=O)Nc2ccc(-c3ccc(Cl)cc3)cc2)cc1)C1CCCC1 [Example 1.425],217 to 219

row,Compound,melting point [°C]
1,"O=C(C#Cc1ccc(CCN2CCCC2)cc1)Nc1ccc(-c2ccc(Cl)cc2)cc1 [Example 2.4, 3-[4-(2-pyrrolidin-1-ylethyl)phenyl]propynoic acid-(4′-chlorobiphenyl-4-yl)amide]",217 to 218
2,"COc1cc(NC(=O)C#Cc2ccc(C(F)(F)F)cc2Cl)ccc1OCCN(C)CC1CC1 (as salt: hydrochloride) [Example 4.278, 3-(2-chloro-4-trifluoromethylphenyl)propynoic acid-{4-[2-(cyclopropylmethylmethylamino)ethoxy]-3-methoxyphenyl}amide hydrochloride]",173 to 176
3,"CCN(CC)CCCOc1ccc(NC(=O)C#Cc2ccc(C(F)(F)F)cc2Cl)cc1Cl (as salt: formate) [Example 4.18, 3-(2-chloro-4-trifluoromethylphenyl)propynoic acid-[3-chloro-4-(3-diethylaminopropoxy)phenyl]amide formate]",112 to 116
4,"O=C(CCc1ccc(CNC2CCCC2)cc1)Nc1ccc(-c2ccc(Cl)cc2)cc1 [Example 6.41, N-(4′-chlorobiphenyl-4-yl)-3-(4-cyclopentylaminomethylphenyl)propionamide]",196 to 197
5,"O=C(C#Cc1ccc(Cl)cc1Cl)Nc1ccc2oc(CCN3CCCC3)nc2c1 [Example 4.12, 3-(2,4-dichlorophenyl)propynoic acid-[2-(2-pyrrolidin-1-ylethyl)benzoxazol-5-yl]amide]",130
6,"CC(C)Nc1ccc2cc(NC(=O)C#Cc3ccc(C(F)(F)F)cc3Cl)ccc2n1 [Example 7.2, 3-(2-chloro-4-trifluoromethylphenyl)propynoic acid-(2-isopropylaminoquinolin-6-yl)amide]",57 to 60
7,"O=C(C#Cc1ccc(CN2CCC(O)CC2)cc1)Nc1ccc(-c2ccc(Cl)cc2)cc1F [Example 1.21, 3-[4-(4-hydroxypiperidin-1-ylmethyl)phenyl]propynoic acid-(4′-chloro-3-fluorobiphenyl-4-yl)amide]",164 to 165
8,"CN(CCCN)Cc1ccc(CCC(=O)Nc2ccc(-c3ccc(Cl)cc3)cc2)cc1 [Example 6.27, 3-(4-{[(3-aminopropyl)methylamino]methyl}phenyl)-N-(4′-chlorobiphenyl-4-yl)propionamide]",165
9,"NC1(c2ccc(C#CC(=O)Nc3ccc(-c4ccc(Cl)cc4)cc3)cc2)CC1 (as salt: trifluoroacetate) [Example 1.422, 3-[4-(1-aminocyclopropyl)phenyl]propynoic acid-(4′-chlorobiphenyl-4-yl)amide trifluoroacetate]",160 to 164
10,"CCN(CC)CCc1ccc(NC(=O)C#Cc2ccc(C(F)(F)F)cc2Cl)cc1 [Example 3.35, 3-(2-chloro-4-trifluoromethylphenyl)propynoic acid-[4-(2-diethylaminoethyl)phenyl]amide]",145 to 150
11,"CN(Cc1ccc(/C=C/C(=O)Nc2ccc(-c3ccc(Cl)cc3)cc2)cc1)C1CCN(C(=O)OC(C)(C)C)CC1 [Example 5.35, tert-butyl 4-({-[(E)-2-(4′-chlorobiphenyl-4-ylcarbamoyl)vinyl]benzyl}methylamino)piperidine-1-carboxylate]",168 to 169
12,"CCN(CC)CCOc1ccc(NC(=O)C#Cc2c(Cl)cc(Cl)cc2Cl)cc1Cl (as salt: hydrochloride) [Example 4.5, 3-(2,4,6-trichlorophenyl)propynoic acid-[3-chloro-4-(2-diethylaminoethoxy)phenyl]amide hydrochloride]",188 to 191
13,"CC1(O)CCN(Cc2ccc(CCC(=O)Nc3ccc(-c4ccc(Cl)cc4)cc3)cc2)CC1 [Example 6.9, N-(4′-chlorobiphenyl-4-yl)-3-[4-(4-hydroxy-4-methylpiperidin-1-ylmethyl)phenyl]propionamide]",192
14,"CN(Cc1ccccc1)Cc1ccc(CCC(=O)Nc2ccc(-c3ccc(Cl)cc3)cc2)cc1 [Example 6.18, 3-{4-[(benzylmethylamino)methyl]phenyl}-N-(4′-chlorobiphenyl-4-yl)propionamide]",174 to 175
15,"O=C(C#Cc1ccc(-c2ccc(Cl)cc2)cc1)Nc1ccc2c(ccn2CCN2CCCC2)c1 [Example 3.19, 3-(4′-chlorobiphenyl-4-yl)propynoic acid-[1-(2-pyrrolidin-1-ylethyl)-1H-indol-5-yl]amide]",224 to 227
16,"CN(Cc1ccc(/C=C/C(=O)Nc2ccc(-c3ccc(Cl)cc3)cc2)cc1)CC1CC1 [Example 5.17, (E)-N-(4′-chlorobiphenyl-4-yl)-3-{4-[(cyclopropylmethylmethylamino)methyl]phenyl}acrylamide]",246 to 247
17,"O=C(CCc1ccc(CN2CCC3(CCCC3)CC2)cc1)Nc1ccc(-c2ccc(Cl)cc2)cc1 [Example 6.28, 3-[4-(8-azaspiro[4.5]dec-8-ylmethyl)phenyl]-N-(4′-chlorobiphenyl-4-yl)propionamide]",201.5
18,"COC1CCN(Cc2ccc(CCC(=O)Nc3ccc(-c4ccc(Cl)cc4)cc3)cc2)CC1 [Example 6.3, N-(4′-chlorobiphenyl-4-yl)-3-[4-(4-methoxypiperidin-1-ylmethyl)phenyl]propionamide]",143 to 144
